Measured values from patent US9381229B2, “Pharmaceutical composition for use in the treatment of dysfunction associated with aging” (INSERM (INSTITUT NATIONAL DE LA SANTE ET DE LA RECHERCHE …, priority 2011, dated 2016).
Where two headings read alike, the source gives them in different places.

Key:
citrate synthase = details: muscle homogenates; HFD mice; n=7-9; P<0.001 vs control
Description: (§1) Mice were handled in accordance with the principles and guidelines established by INSERM. C57B16/J wild-type (WT) mice were obtained from Harlah (Gannat, France). […] Moris J. Birnbaum (Howard Hughes Medical Institute, University of Pennsylvania, Philadelphia, Pa.). Apelin-deficient (apelin−/−) mice were generated as described previously (10) and backcrossed to C57B16/J mice >10 times. Mice were housed conventionally in a constant temperature (20-22° C.) and humidity (50-60%) animal room, with a 12/12 h light/dark cycle (lights on at 7:00 a.m.) and free access to food and water. The C57B16/J and AMPK-DN mice were fed an ND from weaning until aged 10 weeks and then either maintained on ND (control group) or fed an HFD containing 20% protein, 35% carbohydrate, and 45% fat (Research Diets, New Brunswick, N.J.). Apelin treatment began after the onset of insulin resistance in males aged 23 weeks. Mice were injected daily with apelin-13 (Phoenix Biotech) at […] i.p. as previously described (7) for 28 days. Age-matched control mice were PBS injected during the same period. Standard mice were also treated with a specific APJ receptor antagonist (F13A) (Phoenix Biotech) (11) at 0.2 μmol/kg/day during 28 days or with the combination of apelin and F13A. All mice were killed 24 h after the last apelin injection in a fed state.

Malonyl-CoA = details: soleus muscle of insulin-resistant mice
Description: as §1

AMPK [1] = details: muscle of HFD AMPK-DN apelin-treated mice
Description: as §1

[2] = system: muscle of insulin-resistant mice; details: HFD mice; chronic apelin treatment 28 days
Description: as §1

[3] = system: mitochondria of soleus muscle; details: HFD mice
Description: as §1

soleus muscle = system: soleus muscle
Description: as §1

[4] = Plasma apelin concentration in HFD mice (Example 3); assay type: in vivo
Description: Plasma fatty acids (FM) and TGs measured by colorimetric technique with the Wako NEFA kit (Wako Chemicals) and the PAP 150 Kit (bioMerieux), respectively, as well as plasma leptin, adiponectin (Quantikine; R&D Systems), and apelin (Phoenix Pharmaceuticals, Inc.), were determined in the fed state at the end of the treatment. Insulinemia (Mercodia, Uppsala, Sweden) and glycemia measured with a glucometer (Accu-check; Roche Diagnostics) were determined in the fasted state on blood from the tail vein.

PGC1-β = details: soleus muscle; HFD mice; chronic apelin treatment
Description: as §1
(§2) Total RNAs (1 μg) were isolated from muscle using RNA STAT (AMS Technology, Lutterworth, U.K.) and were reverse transcribed using random hexamers and Superscript II reverse transcriptase (Invitrogen, Paisley, U.K.). Real time PCR was performed as previously described (1). Analysis of the 18S ribosomal RNA was performed using the ribosomal RNA control TaqMan Assay Kit (Applied Biosystems) to normalize gene expression.

[5] = system: mitochondrial transcription factor A (TFAM); details: soleus muscle; HFD mice; chronic apelin treatment
Description: as §1, §2

[6] = system: nuclear respiratory factor 1 (NRF1); details: soleus muscle; HFD mice; chronic apelin treatment
Description: as §1, §2

PGC1-α = details: soleus muscle; HFD mice; chronic apelin treatment
Description: as §1, §2

mitochondrial complexes = details: muscle of HFD mice; chronic apelin treatment
Description: as §1
(§3) Membranes were probed with β-actin or AMPK or ACC antibodies for total proteins.

AMPK [7] = details: muscle of insulin-resistant mice
Description: as §1, §3

ACC = details: muscle of insulin-resistant mice
Description: as §1, §3

[8] = Plasma apelin concentration after ip bolus of apelin (Example 1); assay type: in vivo, mice; details: bolus of ip apelin 0.1 μmole/kg; 10 min after injection
Myf5 = details: for Myf5 marker quantification (mRNA), Mean: apelin 0.1 μmole/kg/day ip, 28 days
Description: (§4) Mice were handled in accordance with the principles and guidelines established by the National Institute of Medical Research (INSERM). C57B16/J wild type mice were obtained from Harlan (Gannat, France). CMV-KO apelin mice were obtained from Genoway (Lyon, France). Mice were housed conventionally in a constant temperature (20-22° C.) and humidity (50-60%) animal room, with a 12/12 h light/dark cycle (lights on at 8:00 am) and free access to food and water. The mice were fed a chow diet from weaning until 10-week-old and then either maintained on a chow diet (Research Diet, NJ).
(§5) Apelin treatment was processing to mice from 31 weeks old to 35 weeks old. Mice were daily injected with intraperitoneal injection of apelin (0.1 μmole/kg/day) as previously described (Higuchi et al 2005; Yue et al 2010) for 28 days. Age-matched control mice were PBS-injected during the same period. All mice were sacrificed 24 h after the last apelin ip injection in a fed state.
(§6) Total RNAs ([…]) were isolated from muscles using GeneJET RNA Purification Kit (Fermentas, USA). Total RNAs were reverse transcribed using random hexamers and Superscript 11 reverse transcriptase (Invitrogen, UK). Real time PCR was performed as previously described (Boucher et al. 2005).

Myostatin = details: for Myostatin marker quantification (mRNA), Mean: apelin 0.1 μmole/kg/day ip, 28 days
Description: as §4, §5, §6

myogenin = details: for myogenin marker quantification (mRNA), Mean: apelin 0.1 μmole/kg/day ip, 28 days
Description: as §4, §5, §6

MyoD = details: for MyoD marker quantification (mRNA), Mean: apelin 0.1 μmole/kg/day ip, 28 days
Description: as §4, §5, §6

mtDNA = assay: Mitochondrial DNA analysis in soleus muscle (COX1 to cyclophilin A); assay type: in vivo; details: HFD mice
Description: Total DNA was extracted from soleus muscle using a commercial kit (DNeasy; QIAGEN). The content of mitochondrial (mt)DNA was calculated using real-time quantitative PCR by measuring the threshold cycle ratio of a mitochondrial encoded gene (COX1) and a nuclear-encoded gene (cyclophilin A) as previously described (15).

[9] = soleus muscle, HFD mice, chronic apelin treatment
[10] = quadriceps muscles of moderate aged-mice, 28-days treatment

CSCC[C@H](NC(=O)[C@@H]1CCCN1C(=O)CNC(=O)[C@H](CCCCN)NC(=O)[C@H](Cc1cnc[nH]1)NC(=O)[C@H](CO)NC(=O)[C@H](CC(C)C)NC(=O)[C@H](CCCNC(=N)N)NC(=O)[C@@H]1CCCN1C(=O)[C@H](CCCNC(=N)N)NC(=O)[C@@H](N)CCC(N)=O)C(=O)N1CCC[C@H]1C(=O)N[C@@H](Cc1ccccc1)C(=O)O [apelin, apelin-13]
citrate synthase activity (citrate synthase): 2.91±0.07 μmol/min/mg proteins
malonyl-CoA concentrations (FIG. 6B) (Malonyl-CoA): significant reduction
apelin-increased FAO in HFD AMPK-DN mice vs HFD WT (FIG. 6C) (AMPK [1]): completely blunted
apelin-increased mitochondrial biogenesis in HFD AMPK-DN mice vs HFD WT (FIG. 6D) (AMPK [1]): completely blunted
overexpression of PGC1-α, TFAM, and NRF1 in HFD AMPK-DN mice (FIG. 6E) (AMPK [1]): reduced
amount of IMTG and DAG in muscle vs PBS treatment (FIG. 4A) [2]: does not reduce
alterations of mitochondria ultrastructure in IMF and SS mitochondria (FIG. 5E) [3]: Fewer adverse alterations
density of intramyofibrillar (IMF) mitochondria (FIG. 5E) [3]: significantly increased
succinate and adenylate-driven respiration (State 3) ([3]; permeabilized soleus fibers): significantly higher
succinate-driven mitochondrial respiration (complex II) vs control (FIG. 5A) ([3]; permeabilized soleus fibers): significantly higher
glutamate/malate-driven mitochondrial respiration (complex I), apelin- vs PBS-treated ([3]; permeabilized soleus fibers, data not shown): No difference
insulin-stimulated glucose uptake vs PBS-treated mice (FIG. 7B) (soleus muscle; 100 nmol/L insulin, HFD mice): significantly increased
rate of palmitate incorporation into TG (FIG. 4B) (soleus muscle; HFD mice, chronic apelin treatment 28 days): no effect
acylcarnitine levels, especially C16:1 and C18:1 species, vs HFD PBS-treated mice (FIG. 7A) (soleus muscle; soleus muscle homogenates): reduced
complete oxidation of [14C]palmitate to CO2 vs PBS treatment (FIG. 4C) (soleus muscle; [9]): significantly increased
incomplete oxidation of [14C]palmitate (FIG. 4C) (soleus muscle; [9]): not significantly increased
Plasma apelin concentrations, increase ([4]; HFD mice, bolus of apelin 0.1 μmol/kg i.p., 10 min after injection): > 2.4 fold
Plasma apelin concentrations, apelin-treated vs PBS-treated mice ([4]; at the end of the 28-day treatment): not different
level at 10 min ([4]; mouse, in vivo, ip, 0.1 umol/kg, HFD mice, bolus of apelin 0.1 μmol/kg i.p., 10 min after injection, n=5): 4.12 ± 0.96 ng/mL
expression of PGC1-β (FIG. 5C) (PGC1-β): not modified
expression of TFAM [5]: upregulated
expression of NRF1 [6]: upregulated
Expression of PGC1-α (FIG. 5C) (PGC1-α): significantly increased
Protein expression of complex II, III, and V (FIG. 5B) (mitochondrial complexes): significantly increased
AMPK phosphorylation (FIG. 6A) (AMPK [7]): significantly increased
ACC phosphorylation (FIG. 6A) (ACC): significantly increased
Plasma apelin concentrations, increase [8]: over 2.5 fold
Myf5 marker quantification (mRNA), Mean (Myf5; EDL muscle): 1.200
Myf5 marker quantification (mRNA), Mean (Myf5; Gas muscle): 5.340
Myf5 marker quantification (mRNA), Mean (Myf5; Quad muscle): 5.820
Myf 5 expression, change in words (FIGS. 1A and B) (Myf5; [10]): increased
Myostatin marker quantification (mRNA), Mean (Myostatin; EDL muscle): 114.660
Myostatin marker quantification (mRNA), Mean (Myostatin; Gas muscle): 1034.000
Myostatin marker quantification (mRNA), Mean (Myostatin; Quad muscle): 244.300
myostatin expression, change in words (FIGS. 1A and B) (Myostatin; [10]): decrease
myogenin marker quantification (mRNA), Mean (myogenin; EDL muscle): 14.280
myogenin marker quantification (mRNA), Mean (myogenin; Gas muscle): 23.360
myogenin marker quantification (mRNA), Mean (myogenin; Quad muscle): 35.060
Myogenin expression, change in words (FIGS. 1A and B) (myogenin; [10]): increased
MyoD marker quantification (mRNA), Mean (MyoD; EDL muscle): 142.520
MyoD marker quantification (mRNA), Mean (MyoD; Gas muscle): 222.300
MyoD marker quantification (mRNA), Mean (MyoD; Quad muscle): 328.160
MyoD expression, change in words (FIGS. 1A and B) (MyoD; [10]): increased
mtDNA-to-nuclear DNA ratio vs PBS-treated mice (FIG. 5D) (mtDNA): significantly higher
